Values of other authors as cited in US9561272B2, “Compositions and methods for modulating immune responses” (The University of Queensland, priority 2006, dated 2017).

B1: Siah2 (protein, UniProt O43255 1-324, looked up)
E3 ubiquitin-protein ligase …: MSRPSSTGPSANKPCSKQPPPQPQHTPSPAAPPAAATISAAGPGSSAVPAAAAVISGPGGGGGAGPVSPQHHELTSLFECPVCFDYVLPPILQCQAGHLVCNQCRQKLSCCPTCRGALTPSIRNLAMEKVASAVLFPCKYATTGCSLTLHHTEKPEHEDICEYRPYSCPCPGASCKWQGSLEAVMSHLMHAHKSITTLQGEDIVFLATDINLPGAVDWVMMQSCFGHHFMLVLEKQEKYEGHQQFFAIVLLIGTRKQAENFAYRLELNGNRRRLTWEATPRSIHDGVAAAIMNSDCLVFDTAIAHLFADNGNLGINVTISTCCP
B2: PIAS3 (protein, UniProt Q9Y6X2 1-628, looked up)
E3 SUMO-protein ligase PIAS3: MAELGELKHMVMSFRVSELQVLLGFAGRNKSGRKHELLAKALHLLKSSCAPSVQMKIKELYRRRFPRKTLGPSDLSLLSLPPGTSPVGSPGPLAPIPPTLLAPGTLLGPKREVDMHPPLPQPVHPDVTMKPLPFYEVYGELIRPTTLASTSSQRFEEAHFTFALTPQQVQQILTSREVLPGAKCDYTIQVQLRFCLCETSCPQEDYFPPNLFVKVNGKLCPLPGYLPPTKNGAEPKRPSRPINITPLARLSATVPNTIVVNWSSEFGRNYSLSVYLVRQLTAGTLLQKLRAKGIRNPDHSRALIKEKLTADPDSEVATTSLRVSLMCPLGKMRLTVPCRALTCAHLQSFDAALYLQMNEKKPTWTCPVCDKKAPYESLIIDGLFMEILSSCSDCDEIQFMEDGSWCPMKPKKEASEVCPPPGYGLDGLQYSPVQGGDPSENKKKVEVIDLTIESSSDEEDLPPTKKHCSVTSAAIPALPGSKGVLTSGHQPSSVLRSPAMGTLGGDFLSSLPLHEYPPAFPLGADIQGLDLFSFLQTESQHYGPSVITSLDEQDALGHFFQYRGTPSHFLGPLAPTLGSSHCSATPAPPPGRVSSIVAPGGALREGHGGPLPSGPSLTGCRSDIISLD
B3: Secretory leukoprotease inhibitor (SLPI) (protein, UniProt P03973 26-132, looked up)
Antileukoproteinase: SGKSFKAGVCPPKKSAQCLRYKKPECQSDWQCPGKKRCCPDTCGIKCLDPVDTPNPTRRKPGKCPVTYGQCLMLNPPNFCEMDGQCKRDLKCCMGMCGKSCVSPVKA

Test system: NF-κB
Details: Table 3, miscellaneous inhibitors of NF-κB; step of NF-κB function inhibited, per the cited reference; cited from earlier work

Molecule | Effect or point of inhibition
C=CCNC1=C2C[C@@H](C)C[C@H](OC)[C@H](O)[C@@H](C)/C=C(\C)[C@H](OC(N)=O)[C@@H](OC)/C=C\C=C(/C)C(=O)NC(=CC1=O)C2=O [17-allylamino-17-demethoxygeldanamycin] | Transactivation
S=C=NCCc1ccccc1 [Phenethylisothiocyanate] | Transactivation
O=c1cc(N2CCOCC2)oc2c(-c3ccccc3)cccc12 [LY294,002] | Transactivation
CCCCCCCCCCCCC/C=C/[C@@H](O)[C@@H](N)CO[C@@H]1O[C@H](CO)[C@H](O)[C@H](O)[C@H]1O [Psychosine] | Transactivation
COc1cc([C@@H]2c3cc4c(c(OC)c3[C@H](O)[C@H]3COC(=O)[C@H]23)OCO4)cc(OC)c1O | Transactivation
OC[C@@H](O)[C@H](O)[C@@H](O)CO [Xylitol] | DNA binding
CCCCC/C=C\C/C=C\CCCCCCCC(=O)OCC(COC(=O)CCCCCCC/C=C\C/C=C\CCCCC)OC(=O)CCCCCCC/C=C\C/C=C\CCCCC [Trilinolein] | Transactivation
N[C@@H](Cc1c[nH]cn1)C(=O)O [Histidine] | Transactivation
CC(C)[C@]12O[C@H]1[C@@H]1O[C@]13[C@]1(O[C@H]1C[C@H]1C4=C(CC[C@@]13C)C(=O)OC4)[C@@H]2O | DNA binding
COc1ccc(-c2cc(=O)c3c(OC)c(OC)c(OC)c(OC)c3o2)cc1OC [Nobiletin] | Transactivation
C[C@H]1[C@H](C)CC[C@]2(C(=O)O)CC[C@]3(C)C(=CC[C@@H]4[C@@]5(C)CC[C@H](O)C(C)(C)[C@@H]5CC[C@]43C)[C@H]12 [Ursolic acid] | DNA binding
COC1=C[C@@H]2[C@@H]3Cc4ccc(OC)c(O)c4[C@]2(CCN3C)CC1=O [Sinomenine] | DNA binding
COc1ccc(C(C)=O)c(O)c1 [Paeonol (from Mountain Cortx)] | Transactivation
COc1cc(O)c(CC=C(C)C)c(O)c1C(=O)/C=C/c1ccc(O)cc1 [Xanthohumol (a hops prenylflavonoid)] | DNA binding
Cn1cc(C2=C(c3cn(CCCSC(=N)N)c4ccccc34)C(=O)NC2=O)c2ccccc21 [RO31-8220 (PKC inhibitor)] | Transactivation
C[n+]1c2n(c(=O)c3ccccc31)CCc1c-2[nH]c2ccccc12 [Dehydroevodiamine] | Transactivation
CCOC(=O)c1cnc(NC2=C(C)C(=O)NC2=O)nc1C(F)(F)F | Transactivation
CC(/C=C/C(=O)NO)=C\[C@@H](C)C(=O)c1ccc(N(C)C)cc1 [Trichostatin A] | RelA DNA binding
O=C(O)c1cc(/N=N/c2ccc(S(=O)(=O)Nc3ccccn3)cc2)ccc1O [Sulfasalazine] | DNA binding
N#CC(C#N)=Cc1ccc([N+](=O)[O-])c(O)c1 [Tyrphostin AG-126] | DNA binding
C[C@H]1CCC[C@H](O)CCC/C=C/c2cc(O)cc(O)c2C(=O)O1 [Alpha-zearalenol] | Transactivation
COC[C@H]1OC(=O)c2coc3c2[C@@]1(C)C1=C(C3=O)[C@@H]2CCC(=O)[C@@]2(C)C[C@H]1OC(C)=O [Wortmannin (fungal metabolite)] | Transactivation

Molecule | Effect or point of inhibition
CC1(C)C[C@@H]1C(=O)Nc1ccc(Oc2ccc(NC(=O)[C@H]3CC3(C)C)cn2)cc1 [APC0576] | Transactivation
S=C([S-])OC1CC2CC1C1CCCC21.[K+] (stereo not shown) | Transactivation
O=C1NC(=O)C(Cc2ccc3cc(OCc4ccccc4F)ccc3c2)S1 (stereo not shown) [Thiazolidinedione MCC-555] | DNA binding
Siva-1 | DNA binding
COc1cc(/C=C/C(=O)c2ccc(F)cc2)cc(OC)c1OC [3,4,5-trimethoxy-4′-fluorochalcone] | Transactivation
COc1c(O)cc(O)c2c(=O)cc(-c3ccccc3)oc12 [Wogonin (5,7-dihydroxy-8-methoxyflavone)] | DNA binding
Cc1nc(C)c(C)nc1C [Tetramethylpyrazine] | DNA binding
O=c1cc(-c2ccc(O)c(O)c2)oc2cc(O)cc(O)c12 [Luteolin] | p65 Transactivation
Tom1 (target of Myb-1) overexpression | DNA binding
Artemisolide | Transactivation
[SH-].[SH-].[S]=[Mo]=[S] [Tetrathiomolybdate] | Transactivation
CS(=O)(=O)Nc1cc2occ(NC=O)c(=O)c2cc1Oc1ccccc1 | DNA binding
CC1=C(CO)C(=O)O[C@@H]([C@@H](C)[C@H]2CC[C@H]3[C@@H]4C[C@H]5O[C@]56[C@@H](O)C=CC(=O)[C@]6(C)[C@H]4CC[C@]23C)C1 [Withaferin A] | DNA binding
COc1ccc(C=CC(=O)Nc2ccccc2C(=O)O)cc1OC | Transactivation
CC(=O)OC(CC=C(C)C)C(C)=CC(O)CC(C)=CCOc1ccc2ccc(=O)oc2c1 (stereo not shown) | Transactivation
O=C(C=Cc1ccc(O)cc1)NCCc1c[nH]c2ccc(O)cc12 | DNA binding
O=C(Nc1ncc([N+](=O)[O-])s1)c1ccc([N+](=O)[O-])c(Cl)c1 [SM-7368 (small molecule)] | DNA binding
c1cc2c(cc1[C@H]1OC[C@H]3[C@@H]1CO[C@@H]3c1ccc3c(c1)OCO3)OCO2 [Sesamin (from sesame oil)] | DNA binding
B1 | DNA binding
B2 | Transactivation
B3 | DNA binding

Same assay, conditions: cited from earlier work

Molecule | Effect or point of inhibition
Oc1ccc(O)cc1 [Hydroquinone (HQ)] | DNA binding
C=C(C)[C@@H]1CC[C@]2(C(=O)O[C@@H]3O[C@H](CO[C@@H]4O[C@H](CO)[C@@H](O[C@@H]5O[C@@H](C)[C@H](O)[C@@H](O)[C@H]5O)[C@H](O)[C@H]4O)[C@@H](O)[C@H](O)[C@H]3O)CC[C@]3(C)[C@H](C[C@H]4OC(=O)C[C@@H](O)[C@]5(C)[C@@H]4[C@@]3(C)CC[C@H]5C(=C)C)[C@@H]12 [Chiisanoside] | RelA Nuclear translocation
CCCCCCCCCCCCCC(=O)OCC/C(SS/C(CCOC(=O)CCCCCCCCCCCCC)=C(\C)N(C=O)Cc1cnc(C)nc1N)=C(/C)N(C=O)Cc1cnc(C)nc1N | Nuclear translocation
C[S+]([O-])c1ccc(-c2nc(-c3ccc(F)cc3)c(-c3ccncc3)[nH]2)cc1 (stereo not shown) [SB203580 (p38 MAPK inhibitor)] | Transactivation
N[C@@H](CCC(=O)N[C@@H](CSN=O)C(=O)NCC(=O)O)C(=O)O [Nitrosoglutathione] | DNA binding
mercury | DNA binding
